In patent US12122778B2, “Activating pyruvate kinase R” (Novo Nordisk Health Care AG, priority 2018, dated 2024):

Assays:
PKR(G332S) = PKR(G332S) (Homo sapiens, UniProt P30613, G332S); assay: Luminescence Biochemical Assay (Kinase Glo Plus), PKR G332S mutant; settings: with FBP; for activation at 1.54 µM: 1.54 μM compound, read-out: AC50 LUM KGP FBP % Fold@1.54 μM mean; for AC50: read-out: AC50 LUM KGP FBP AC50 μM gmean (column A); for Emax: read-out: AC50 LUM KGP FBP MAX % FOLD mean
Experimental: (§1) In some embodiments, a PKR Activating Compound can have: (1) an AC50 value of less than 0.1 μM (e.g., compounds with AC50 values of “+++” in Table 13), 0.1-1.0 μM (e.g., compounds with AC50 values of “++” in Table 13), or 1.01-40 μM (e.g., compounds with AC50 values of “+” in Table 13); (2) a MAX % Fold of 75%-250%, 250-500%, or 75%-500%; and/or (3) a % Fold@1.54 μM of 75%-250%, 250-500%, or 75%-500%. In some embodiments, a PKR Activating Compound has (1) an AC50 value of less than 1.0 μM; (2) a MAX % Fold of 75%-500%; and/or (3) a % Fold@1.54 μM of 75%-500%.
(§2) The phosphorylation of Adenosine-5′-diphosphate (ADP) by various mutants of PKR was determined by the Kinase Glo Plus Assay (Promega) in the presence or absence of FBP [D-Fructose-1,6-diphosphate; BOC Sciences, CAS: 81028-91-3] as follows. Unless otherwise indicated, all reagents were purchased from Sigma-Aldrich. All reagents were prepared in buffer containing 50 mM Tris-HCl, 100 mM KCl, 5 mM MgCl2, and 0.01% Triton X100, 0.03% BSA, and 1 mM DTT. Enzyme and PEP [Phospho(enol) pyruvic acid] were added at 2× to all wells of an assay-ready plate containing serial dilutions of test compounds or DMSO vehicle. Final enzyme concentrations for PKR(wt), PKR(R510Q), and PKR(G332S) were 0.8 nM, 0.8 nM, and 10 nM respectively. Final PEP concentration was 100 μM. The Enzyme/PEP mixture was incubated with compounds for 30 minutes at RT before the assay was initiated with the addition of 2×ADP [Adenosine-5′-diphosphate] and KinaseGloPlus. Final concentration of ADP was 100 μM. […] For assays containing FBP, that reagent is added at 30 μM upon reaction initiation. Reactions were allowed to progress for 45 minutes at RT until luminescence was recorded by the BMG PHERAstar FS Multilabel Reader. All compounds were tested in triplicate at concentrations ranging from 42.5 μM to 2.2 nM in 0.83% DMSO.
(§3) Luminescence values were converted to % Fold increase by normalizing to the average of the DMSO control and multiplying by 100. Max, min, slope and AC50 were determined by the standard four parameter fit algorithm of ActivityBase XE Runner. Compounds were evaluated with three parameters—AC50, MAX % Fold, and % Fold@1.54 μM (FIG. 1). The AC50 value for a compound is the concentration (μM) corresponding to the midway between the maximum and minimum values of the four parameter logistic curve fit (i.e., at which the % fold increase along the four parameter logistic curve fit is halfway between MAX % Fold and MIN % Fold (% Fold Midpoint)), MAX % Fold is the highest fold increase observed at any concentration of compound, and % Fold@1.54 μM is the fold increase at a compound concentration of 1.54 μM. The parameter % Fold@1.54 μM was selected to capture elements of both the AC50 and MAX % Fold and to provide a ranking based on both potency and effect. The compound concentration of 1.54 μM was chosen as one that can optimally differentiate the set of compounds based on the range of activities observed.
(§4) As set forth in Table 13 below, AC50 values (columns A, D, G) are defined as follows: ≤0.1 μM (+++); >0.1 μM and ≤1.0 μM (++); >1.0 μM and ≤40 μM (+); >40 μM (0). Max % FOLD values (columns B, E, H) are defined as follows: ≤75% (+); >75% and ≤250% (++); >250% and ≤500% (+++). % Fold@1.54 μM values (columns C, F, J) are defined as follows: ≤75% (+); >75% and ≤250% (++); >250% and ≤50000 (+++).

PKR(R510Q) = PKR(R510Q) (Homo sapiens, UniProt P30613, R510Q); assay: Luminescence Biochemical Assay (Kinase Glo Plus), PKR R510Q mutant; settings: without FBP; for activation at 1.54 µM: 1.54 μM compound, read-out: AC50 LUM KGP woFBP % Fold@1.54 μM mean; for AC50: read-out: AC50 LUM KGP woFBP AC50 μM gmean; for Emax: read-out: AC50 LUM KGP woFBP MAX % FOLD mean
Sequence of PKR(R510Q) (P30613 whole entry R510Q): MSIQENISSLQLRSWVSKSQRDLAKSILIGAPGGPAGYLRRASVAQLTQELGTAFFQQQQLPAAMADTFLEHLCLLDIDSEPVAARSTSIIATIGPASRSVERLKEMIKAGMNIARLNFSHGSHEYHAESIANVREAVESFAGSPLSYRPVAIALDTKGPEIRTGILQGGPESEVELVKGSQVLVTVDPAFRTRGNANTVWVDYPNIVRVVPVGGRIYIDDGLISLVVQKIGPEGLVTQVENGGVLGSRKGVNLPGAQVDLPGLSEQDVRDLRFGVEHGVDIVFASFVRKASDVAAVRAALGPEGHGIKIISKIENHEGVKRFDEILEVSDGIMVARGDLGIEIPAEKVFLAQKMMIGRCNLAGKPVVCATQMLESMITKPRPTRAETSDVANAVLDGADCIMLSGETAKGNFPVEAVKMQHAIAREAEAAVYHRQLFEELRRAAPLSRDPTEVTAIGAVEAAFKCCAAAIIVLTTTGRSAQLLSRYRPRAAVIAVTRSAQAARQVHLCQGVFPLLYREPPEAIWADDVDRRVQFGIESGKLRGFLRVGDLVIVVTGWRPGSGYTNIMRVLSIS
Experimental: as §1, §2, §3, §4

PKR(wt) = PKR(wt) (Homo sapiens, UniProt P30613); assay: Luminescence Biochemical Assay (Kinase Glo Plus), wild type PKR; settings: without FBP; for activation at 1.54 µM: 1.54 μM compound, read-out: AC50 LUM KGP woFBP % Fold@1.54 μM mean; for AC50: read-out: AC50 LUM KGP woFBP AC50 μM gmean; for Emax: read-out: AC50 LUM KGP woFBP MAX % FOLD mean
Sequence of PKR(wt) (P30613 whole entry): as the sequence (P30613 whole entry R510Q) above, with Q510R counted along it

Sequence of PKR(G332S) (P30613 whole entry G332S): as the sequence (P30613 whole entry R510Q) above, with G332S, Q510R counted along it

Compound	activation at 1.54 µM (PKR(G332S))	AC50 (PKR(G332S))	Emax (PKR(G332S))	activation at 1.54 µM (PKR(R510Q))	AC50 (PKR(R510Q))	Emax (PKR(R510Q))	activation at 1.54 µM (PKR(wt))	AC50 (PKR(wt))	Emax (PKR(wt))
O=C(NCc1cnco1)N1CC2=C(C1)CN(S(=O)(=O)c1ccc(F)cc1)C2 [Example 5-1, 5-(4-Fluorophenylsulfonyl)-N-(oxazol-5-ylmethyl)-3,4,5,6-tetrahydropyrrolo[3,4-c]pyrrole-2(1H)-carboxamide]	75 to 250%	0.1 to 1 µM	75 to 250%	75 to 250%	1 to 40 µM	75 to 250%			
Cc1noc(C)c1S(=O)(=O)N1CC2=C(CN(C(=O)[C@H](O)c3ccccc3)C2)C1 [Example 18-44, (2R)-1-{5-[(dimethyl-1,2-oxazol-4-yl)sulfonyl]-1H,2H,3H,4H,5H,6H-pyrrolo[3,4-c]pyrrol-2-yl}-2-hydroxy-2-phenylethan-1-one]	75 to 250%	1 to 40 µM	75 to 250%	75 to 250%	1 to 40 µM	75 to 250%			
Cc1nc(S(=O)(=O)N2CC3=C(CN(C(=O)C(C)n4cnc5ccccc54)C3)C2)cn1C (stereo not drawn) [Example 19-9, 2-(1H-Benzo[d]imidazol-1-yl)-1-(5-((1,2-dimethyl-1H-imidazol-4-yl)sulfonyl)-3,4,5,6-tetrahydropyrrolo[3,4-c]pyrrol-2(1H)-yl)propan-1-one]	75 to 250%	0.1 to 1 µM	75 to 250%	75 to 250%	1 to 40 µM	75 to 250%			
COc1ccc(CNC(=O)N2CC3=C(C2)CN(S(=O)(=O)c2ccc(F)cc2)C3)cc1 [Example 20-3]	75 to 250%	≤ 0.1 µM	75 to 250%	250 to 50000%	0.1 to 1 µM	250 to 500%			
COc1cccc(CNC(=O)N2CC3=C(C2)CN(S(=O)(=O)c2cccc(F)c2)C3)c1 [Example 20-8, 5-(3-Fluorobenzenesulfonyl)-N-[(3-methoxyphenyl)methyl]-1H,2H,3H,4H,5H,6H-pyrrolo[3,4-c]pyrrole-2-carboxamide]	75 to 250%	1 to 40 µM	75 to 250%	75 to 250%	0.1 to 1 µM	75 to 250%			
COc1cccc(CNC(=O)N2CC3=C(C2)CN(S(=O)(=O)c2cccc4cnccc24)C3)c1 [Example 20-12, 5-(Isoquinoline-5-sulfonyl)-N-[(3-methoxyphenyl)methyl]-1H,2H,3H,4H,5H,6H-pyrrolo[3,4-c]pyrrole-2-carboxamide]	75 to 250%	1 to 40 µM	75 to 250%	75 to 250%	1 to 40 µM	75 to 250%			
O=C(NCc1ccc(F)cc1)N1CC2=C(C1)CN(S(=O)(=O)c1cccc3nonc13)C2 [Example 20-24, 5-(2,1,3-Benzoxadiazole-4-sulfonyl)-N-[(4-fluorophenyl)methyl]-1H,2H,3H,4H,5H,6H-pyrrolo[3,4-c]pyrrole-2-carboxamide]	75 to 250%	1 to 40 µM	75 to 250%	75 to 250%	0.1 to 1 µM	250 to 500%			
CC(C)Oc1ccc(CNC(=O)N2CC3=C(C2)CN(S(=O)(=O)c2ccc4ncsc4c2)C3)cc1 [Example 21-31, 5-(1,3-Benzothiazole-6-sulfonyl)-N-{[4-(propan-2-yloxy)phenyl]methyl}-1H,2H,3H,4H,5H,6H-pyrrolo[3,4-c]pyrrole-2-carboxamide]				75 to 250%	1 to 40 µM	75 to 250%	75 to 250%	1 to 40 µM	75 to 250%

Results, then the molecule that gave them:

activation at 1.54 µM (PKR(G332S))	AC50 (PKR(G332S))	Emax (PKR(G332S))	activation at 1.54 µM (PKR(R510Q))	AC50 (PKR(R510Q))	Emax (PKR(R510Q))	activation at 1.54 µM (PKR(wt))	AC50 (PKR(wt))	Emax (PKR(wt))	Compound
75 to 250%	0.1 to 1 µM	75 to 250%	75 to 250%	1 to 40 µM	75 to 250%				Cc1nc(S(=O)(=O)N2CC3=C(CN(C(=O)[C@H](C)c4ccccc4)C3)C2)cn1C [Example 19-3, (2R)-1-{5-[(1,2-dimethyl-1H-imidazol-4-yl)sulfonyl]-1H,2H,3H,4H,5H,6H-pyrrolo[3,4-c]pyrrol-2-yl}-2-phenylpropan-1-one]
75 to 250%	0.1 to 1 µM	75 to 250%	75 to 250%	0.1 to 1 µM	75 to 250%				COc1cccc(CNC(=O)N2CC3=C(C2)CN(S(=O)(=O)c2ccc(F)cc2)C3)c1 [Example 20-4, 5-(4-Fluorobenzenesulfonyl)-N-[(3-methoxyphenyl)methyl]-1H,2H,3H,4H,5H,6H-pyrrolo[3,4-c]pyrrole-2-carboxamide]
75 to 250%	≤ 0.1 µM	75 to 250%	75 to 250%	0.1 to 1 µM	250 to 500%				COc1ccccc1CNC(=O)N1CC2=C(C1)CN(S(=O)(=O)c1ccc(F)cc1)C2 [Example 20-6, 5-(4-Fluorobenzenesulfonyl)-N-[(2-methoxyphenyl)methyl]-1H,2H,3H,4H,5H,6H-pyrrolo[3,4-c]pyrrole-2-carboxamide]
75 to 250%	1 to 40 µM	75 to 250%	75 to 250%	≤ 0.1 µM	75 to 250%				COc1ccc(CNC(=O)N2CC3=C(C2)CN(S(=O)(=O)c2cccc4cnccc24)C3)cc1 [Example 20-11, 5-(Isoquinoline-5-sulfonyl)-N-[(4-methoxyphenyl)methyl]-1H,2H,3H,4H,5H,6H-pyrrolo[3,4-c]pyrrole-2-carboxamide]
75 to 250%	1 to 40 µM	75 to 250%	75 to 250%	0.1 to 1 µM	250 to 500%				COc1ccccc1CNC(=O)N1CC2=C(C1)CN(S(=O)(=O)c1cccc3nonc13)C2 [Example 20-19, 5-(2,1,3-Benzoxadiazole-4-sulfonyl)-N-[(2-methoxyphenyl)methyl]-1H,2H,3H,4H,5H,6H-pyrrolo[3,4-c]pyrrole-2-carboxamide]
75 to 250%	≤ 0.1 µM	75 to 250%	75 to 250%	0.1 to 1 µM	250 to 500%				O=C(NCc1ccc(F)cc1)N1CC2=C(C1)CN(S(=O)(=O)c1ccc(F)cc1)C2 [Example 20-20, 5-(4-Fluorobenzenesulfonyl)-N-[(4-fluorophenyl)methyl]-1H,2H,3H,4H,5H,6H-pyrrolo[3,4-c]pyrrole-2-carboxamide]
75 to 250%	1 to 40 µM	75 to 250%	75 to 250%	0.1 to 1 µM	250 to 500%				O=C(NCc1ccc(F)cc1)N1CC2=C(C1)CN(S(=O)(=O)c1ccc3occc3c1)C2 [Example 20-23, 5-(1-Benzofuran-5-sulfonyl)-N-[(4-fluorophenyl)methyl]-1H,2H,3H,4H,5H,6H-pyrrolo[3,4-c]pyrrole-2-carboxamide]
			250 to 50000%	0.1 to 1 µM	250 to 500%	250 to 50000%	0.1 to 1 µM	250 to 500%	Cc1cccc(CNC(=O)N2CC3=C(C2)CN(S(=O)(=O)c2ccc4ncsc4c2)C3)n1 [Example 21-32, 5-(1,3-Benzothiazole-6-sulfonyl)-N-[(6-methylpyridin-2-yl)methyl]-1H,2H,3H,4H,5H,6H-pyrrolo[3,4-c]pyrrole-2-carboxamide]
